The values below come from patent EP0334146A1, “Morpholines and morpholine-N-oxides, medicines containing these compounds and process for their preparation” (Dr. Karl Thomae GmbH, priority 1988, dated 1989).

This data set relates to Mäusen. Briefly: Cardiac side effects: heart rate by ECG-triggered tachograph during the blood glucose test. It is filed as in vivo. Particulars: Dose 3,0 mg/kg oral; one hour after application; values in brackets = not significant (p > 0.05). The text has this:
Das Auftreten von unerwünschten Nebenwirkungen auf das Herz konnte für die erfindungsgemäßen Verbindungen für den therapeutisch angestrebten stoffwechselaktiven Dosisbereich ausgeschlossen werden. Als Nachweis diente die Messung der Herzfrequenz an Mäusen während der Testung auf blutzuckersenkende Wirkung (s.o.). Eine Stunde nach der oralen Applikation der Verbindungen wurde die Herzfrequenz mittels EKG-getriggertem Tachographen bestimmt. Die nachfolgende Tabelle gibt die Änderung der Herzfrequenz in % der Kontrollgruppe wieder.

Regarding `CC(Cc1ccc(OCC(=O)O)cc1)N1CCOC(c2cccc(Cl)n2)C1` (stereo not shown) [Beispiel 4, N-[2-(4-Carboxymethoxyphenyl)-1-methylethyl]-2-(6-chlor-pyridin-2-yl)-morpholin], the “Änderung der Herzfrequenz, % Änderung vom Wert der Kontrollgruppe” value was “( 0 ) %”.
